Reference: paper PMC4841544, “Molecular Basis of Ligand-Dependent Regulation of NadR, the Transcriptional Repressor of Meningococcal Virulence Factor NadA” (PLoS Pathogens, 2016)

Key:
Assay type in all cases: binding
[1] = molecular target: T1, NadR (Neisseria adhesin A Regulator) (Neisseria meningitidis, UniProt Q7DD70); experiment: SPR steady-state; DSC (ΔTm […] °C); design: gene NMB1843; NadR residues M1-S146, His-tag removed by thrombin (149 residues)
[2] = molecular target: T1, NadR (Neisseria adhesin A Regulator); experiment: SPR steady-state; DSC (ΔTm […] °C); design: gene NMB1843; NadR residues M1-S146, His-tag removed by thrombin (149 residues); remark: listed apart in the source
[3] = molecular target: T1, NadR (Neisseria adhesin A Regulator); experiment: SPR steady-state; DSC; 1H-15N TROSY-HSQC NMR; design: gene NMB1843; NadR residues M1-S146, His-tag removed by thrombin (149 residues); SeMet derivative for the crystal

T1 sequence (Q7DD70 entry or part of it): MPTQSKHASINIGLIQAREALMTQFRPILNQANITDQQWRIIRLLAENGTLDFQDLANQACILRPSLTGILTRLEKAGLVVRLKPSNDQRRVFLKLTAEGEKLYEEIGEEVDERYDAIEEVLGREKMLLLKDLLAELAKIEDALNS

## O=C(O)Cc1ccc(O)c(Cl)c1 [3Cl,4-HPA]
[1]
  Kd: 1.1 ± 0.1 mM

## O=C(O)Cc1cccc(O)c1 [3-HPA]
[2]
  Kd: 2.7 ± 0.1 mM

## O=C(O)Cc1ccc(O)cc1 [4-HPA, 4-hydroxyphenylacetate]
[3]
  Kd: 1.5 ± 0.1 mM
